Reference: publication PMC10123570 (The Protein Journal, 2023)
Counter-ions that a name gives are not always drawn.

target: T1, High Temperature requirement A (LmHtrA) (Listeria monocytogenes, UniProt Q8YA67); test: azo-casein cleavage, spectrophotometric; format: biochemical
T1 sequence (Q8YA67 1-500): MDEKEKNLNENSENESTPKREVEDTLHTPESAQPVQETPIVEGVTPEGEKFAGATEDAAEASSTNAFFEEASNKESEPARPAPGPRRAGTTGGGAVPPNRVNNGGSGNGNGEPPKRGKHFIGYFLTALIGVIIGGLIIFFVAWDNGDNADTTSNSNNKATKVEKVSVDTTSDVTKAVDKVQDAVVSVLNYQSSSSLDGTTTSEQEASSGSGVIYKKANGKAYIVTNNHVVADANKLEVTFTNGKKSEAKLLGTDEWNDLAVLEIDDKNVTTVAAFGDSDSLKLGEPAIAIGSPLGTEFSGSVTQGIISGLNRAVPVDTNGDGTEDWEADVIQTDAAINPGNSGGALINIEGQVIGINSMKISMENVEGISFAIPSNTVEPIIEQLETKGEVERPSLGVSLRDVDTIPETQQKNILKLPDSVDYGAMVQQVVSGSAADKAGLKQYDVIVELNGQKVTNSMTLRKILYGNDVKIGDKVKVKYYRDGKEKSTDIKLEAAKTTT

IC50 [µM] | SMILES
152 ± 7.5 | CN(C)C(=O)COC(=O)Cc1ccc(OC(=O)c2ccc(NC(=N)N)cc2)cc1 [CM, Camostat mesylate]
80.6 ± 8.5 | CCOC(=O)c1ccc(OC(=O)CCCCCNC(=N)N)cc1 [GM, Gabexate mesylate]
6.6 ± 0.4 | N=C(N)c1ccc2cc(OC(=O)c3ccc(N=C(N)N)cc3)ccc2c1 [NM, Nafamostat mesylate]
